These results are taken from patent US9549935B2, “Methods and compositions for treating migraines using noribogaine” (DemeRx, Inc., priority 2014, dated 2017).

Where only a bound is given, the exact number is not on record here.

The data set in a line: Plasma noribogaine glucuronide pharmacokinetics after single oral noribogaine doses in healthy volunteers. The settings on record: for AUC0-216 of noribogaine glucuronide / AUC0-∞ of noribogaine glucuronide / Cmax of noribogaine glucuronide / Tmax of noribogaine glucuronide / t1/2 of noribogaine glucuronide: healthy volunteers, mean (SD), n = 6. The data set is classed as in vivo, human. On the procedure:
Blood was obtained for pharmacokinetic assessments pre-dose and then at 0.25, 0.5, 0.75, 1.0, 1.25, 1.5, 2, 2.5, 3, 3.5, 4, 4.5, 5, 5.5, 6, 7, 8, 10, 12, 14, 18, 24, 30, 36, 48, 60, 72, 96, 120, 168 and 216 hours post-dose. Samples were centrifuged and plasma stored at −70° C. until analyzed. Block 24 hour urine collections were obtained following study drug administration for the 30 and 60 mg cohorts. Aliquots were frozen at −20° C. until analyzed.
Plasma noribogaine glucuronide concentrations were determined in the 30 mg and 60 mg dose groups using a validated sensitive LCMSMS method. Sample preparation involved deproteinization of plasma samples with acetonitrile, drying the samples under a stream of nitrogen and reconstitution of sample with acetonitrile:B.P. water (5:95, v/v) containing 0.1% (v/v) formic acid. The compounds were separated by a 150×2.0 mm Luna 5 μm C18 column and detected with a triple-quadrupole API 4000 or 5000 mass spectrometer using electrospray ionization in positive mode and multiple reaction monitoring. Noribogaine-d4 was used as the internal standard. The precursor-product ion transition values for noribogaine glucuronide were m/z 472.8→297.3, and for the internal standard noribogaine-d4 m/z 301.1→122.2. Analyst® software was used for data acquisition and processing. The ratio of the peak area of noribogaine glucuronide to the internal standard noribogaine-d4 was used for calibration and measurement of the unknown concentration of noribogaine glucuronide. The LLOQ was 0.050 ng/ml noribogaine glucuronide. The calibration curve was between 0.050 and 6.400 ng/ml noribogaine glucuronide. Mobile phases was the same as method A. Binary flow: Initial concentration was 6% mobile phase B; hold at 6% mobile phase B for 0.5 minutes and linear rise to 90% mobile phase B over 2 minutes; hold at 90% mobile phase B for 1 minute and then drop back to 6% mobile phase B over 0.01 minute. Equilibrate system for 3.5 minutes. Total run time was 7 minutes. The within- and between-day assay precision was <11%, and the within- and between-day assay accuracy was <10%.
Noribogaine and noribogaine glucuronide concentrations above the limit of quantification were used to calculate pharmacokinetic parameters using model-independent methods. The maximum plasma concentration (Cmax) and time to maximum plasma concentration (Tmax) were the observed values. Plasma concentration data in the post-distribution phase of the plasma concentration-time plot were fitted using linear regression to the formula ln C=ln Co−t.Kel, where Co was the zero-time intercept of the extrapolated terminal phase and Kel was the terminal elimination rate constant. […] The area under the concentration-time curve (AUC) from time zero to the last determined concentration-time point (tf) in the post distribution phase was calculated using the trapezoidal rule. The area under the curve from the last concentration-time point in the post distribution phase (Ctf) to time infinity was calculated from AUCt-∞=Ctf/Kel. The concentration used for Ctf was the last determined value above the LLOQ at the time point. The total AUC0-∞ was obtained by adding AUCtf and AUCt-∞. Noribogaine apparent clearance (CL/F) was determined using the formula CL/F=Dose/AUC0-∞×1000, and apparent volume of distribution (Vd/F) was determined using the formula Vd/F=(CL/F)/Kel. Total urine noribogaine was the sum of both analytes.

Setting [1] is: 30 mg and 60 mg noribogaine dose groups, plasma.
Setting [2] is: after single oral 30 mg noribogaine, plasma.
[3] abbreviates: after single oral 60 mg noribogaine, plasma.

On to `CC[C@H]1C[C@@H]2C[C@H]3c4[nH]c5ccc(OC6OC(C(=O)O)C(O)C(O)C6O)cc5c4CCN(C2)[C@@H]13` (some centres unmarked) [Noribogaine glucuronide, noribogaine glucuronide], for which the “Mean half-life of plasma noribogaine glucuronide” value (30 mg and 60 mg noribogaine dose groups) was 21 to 23 h. For the same compound, under setting [1], the “time by which noribogaine glucuronide was detected in all subjects” value was at most 0.75 h and the “time of peak noribogaine glucuronide concentrations after noribogaine dosing” value is 3 to 4 h. Besides, under setting [2], the “AUC0-216 of noribogaine glucuronide” value was 25.7 (9.1) ng · hr/ml, the “AUC0-∞ of noribogaine glucuronide” value was 25.8 (9.3) ng · hr/ml, the “Cmax of noribogaine glucuronide” value is recorded as 1.8 (0.6) ng/ml and the “Tmax of noribogaine glucuronide” value is listed as 3.0 (0.6) hr. Besides, the “t1/2 of noribogaine glucuronide” value under setting [2] is reported as 20.6 (4.9) hr. Under setting [3], the “AUC0-216 of noribogaine glucuronide” value is given as 65.0 (21.5) ng · hr/ml, the “AUC0-∞ of noribogaine glucuronide” value is reported as 67.1 (21.9) ng · hr/ml, the “Cmax of noribogaine glucuronide” value is 4.1 (1.2) ng/ml and the “Tmax of noribogaine glucuronide” value was 3.8 (1.2) hr. Further, the “t1/2 of noribogaine glucuronide” value under setting [3] is 23.1 (3.0) hr. The “proportion of noribogaine glucuronide Cmax and AUC relative to noribogaine” value (both dose groups (30 mg and 60 mg)) was 3-4%.
